Measurements taken from EP4653444A1, “FUSED TRICYCLIC COMPOUND AS KINASE INHIBITOR” (Hangzhou Innogate Pharma Co., Ltd., priority 2023, dated 2024).
Read-outs that look alike come from different tables or passages of the source.

How the values were obtained:
AXL = target: T1, AXL (Homo sapiens, UniProt P30530); test: AXL kinase activity inhibition assay (Mobility shift assay); format: biochemical
T1 sequence (P30530 26-894): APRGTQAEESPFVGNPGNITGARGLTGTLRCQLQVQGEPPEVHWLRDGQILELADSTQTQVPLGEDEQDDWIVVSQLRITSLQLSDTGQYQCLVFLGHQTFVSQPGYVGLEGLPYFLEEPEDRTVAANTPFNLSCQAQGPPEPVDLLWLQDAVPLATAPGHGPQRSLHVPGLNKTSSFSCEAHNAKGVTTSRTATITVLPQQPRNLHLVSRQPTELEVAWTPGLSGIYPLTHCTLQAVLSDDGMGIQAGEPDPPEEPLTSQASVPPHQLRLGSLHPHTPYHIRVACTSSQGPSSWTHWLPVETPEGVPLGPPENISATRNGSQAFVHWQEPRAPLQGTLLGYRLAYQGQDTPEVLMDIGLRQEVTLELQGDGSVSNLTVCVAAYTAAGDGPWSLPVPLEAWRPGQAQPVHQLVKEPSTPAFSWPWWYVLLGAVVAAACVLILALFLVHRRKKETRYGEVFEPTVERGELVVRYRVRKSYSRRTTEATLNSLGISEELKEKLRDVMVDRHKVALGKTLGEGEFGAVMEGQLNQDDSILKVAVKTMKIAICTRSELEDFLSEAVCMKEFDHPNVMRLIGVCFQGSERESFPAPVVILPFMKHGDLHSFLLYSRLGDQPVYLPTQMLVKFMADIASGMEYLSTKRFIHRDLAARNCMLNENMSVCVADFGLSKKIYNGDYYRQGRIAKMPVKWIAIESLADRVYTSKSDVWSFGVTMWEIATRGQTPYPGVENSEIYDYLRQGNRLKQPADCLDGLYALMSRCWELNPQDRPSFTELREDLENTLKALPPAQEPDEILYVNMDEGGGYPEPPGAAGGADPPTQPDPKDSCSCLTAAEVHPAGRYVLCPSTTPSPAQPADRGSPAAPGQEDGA
Experimental: Testing compound inhibitory activity against FLT3 and AXL kinases using Mobility shift assay. Compounds were dissolved in 100% DMSO to prepare 10 mM stock solutions. Prepare 1× Kinase Buffer. Test compounds were serially diluted in 5-fold gradients, and 250 nL of 100× final concentration compounds were transferred to destination plate 3573 using an Echo 550 liquid handler. A 2.5× final concentration kinase solution was prepared in 1× Kinase Buffer. Then, 10 µL of the 2.5× kinase solution was added to both compound wells and positive control wells, while 10 µL of 1× Kinase Buffer was added to negative control wells. The plate was centrifuged at 1000 rpm for 30 seconds, mixed by orbital shaking, and incubated at room temperature for 10 minutes. A 5/3× final concentration mixture of ATP and Kinase Substrate 25 was prepared in 1× Kinase Buffer. The reaction was initiated by adding 15 µL of the 5/3× ATP/substrate mixture. […] Conversion rates were measured using a Caliper EZ Reader. %Inhibition = (Conversion%_max - Conversion%_sample)/(Conversion%_max - Conversion%_min) × 100. Where: Conversion%_sample: Conversion rate reading of test samples; Conversion%_min: Mean value of negative control wells (representing conversion rate without enzyme activity); Conversion%_max: Mean value of positive control wells (representing conversion rate without compound inhibition). […]

FLT3 = target: T2, FLT3 (Homo sapiens, UniProt P36888); test: FLT3 kinase activity inhibition assay (Mobility shift assay); format: biochemical
T2 sequence (P36888 27-993): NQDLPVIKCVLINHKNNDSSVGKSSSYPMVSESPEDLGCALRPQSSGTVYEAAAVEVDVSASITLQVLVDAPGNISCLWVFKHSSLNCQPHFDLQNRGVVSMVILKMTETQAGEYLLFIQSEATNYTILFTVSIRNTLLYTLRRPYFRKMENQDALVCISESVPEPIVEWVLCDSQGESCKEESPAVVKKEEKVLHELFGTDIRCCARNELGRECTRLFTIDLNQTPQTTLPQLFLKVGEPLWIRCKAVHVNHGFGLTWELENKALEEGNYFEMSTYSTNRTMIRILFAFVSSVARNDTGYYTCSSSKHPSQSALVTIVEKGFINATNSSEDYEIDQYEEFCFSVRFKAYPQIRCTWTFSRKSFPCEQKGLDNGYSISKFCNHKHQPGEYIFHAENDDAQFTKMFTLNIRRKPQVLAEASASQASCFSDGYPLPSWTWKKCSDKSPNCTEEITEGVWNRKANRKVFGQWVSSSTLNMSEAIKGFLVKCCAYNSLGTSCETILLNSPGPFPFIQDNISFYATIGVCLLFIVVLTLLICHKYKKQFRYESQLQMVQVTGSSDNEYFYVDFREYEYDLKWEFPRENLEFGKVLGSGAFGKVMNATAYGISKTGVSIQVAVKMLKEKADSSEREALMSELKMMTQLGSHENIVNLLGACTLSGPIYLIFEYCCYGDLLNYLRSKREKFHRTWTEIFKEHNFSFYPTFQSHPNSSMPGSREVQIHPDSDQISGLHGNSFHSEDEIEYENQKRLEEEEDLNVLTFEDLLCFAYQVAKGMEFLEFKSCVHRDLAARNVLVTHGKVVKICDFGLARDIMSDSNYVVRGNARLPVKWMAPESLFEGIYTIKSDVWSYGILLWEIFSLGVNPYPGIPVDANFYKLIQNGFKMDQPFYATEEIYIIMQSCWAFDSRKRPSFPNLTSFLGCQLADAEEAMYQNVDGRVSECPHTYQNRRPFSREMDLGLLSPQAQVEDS
Experimental: Testing compound inhibitory activity against FLT3 and AXL kinases using Mobility shift assay. Compounds were dissolved in 100% DMSO to prepare 10 mM stock solutions. Prepare 1× Kinase Buffer. Test compounds were serially diluted in 5-fold gradients, and 250 nL of 100× final concentration compounds were transferred to destination plate 3573 using an Echo 550 liquid handler. A 2.5× final concentration kinase solution was prepared in 1× Kinase Buffer. Then, 10 µL of the 2.5× kinase solution was added to both compound wells and positive control wells, while 10 µL of 1× Kinase Buffer was added to negative control wells. The plate was centrifuged at 1000 rpm for 30 seconds, mixed by orbital shaking, and incubated at room temperature for 10 minutes. A 5/3× final concentration mixture of ATP and Kinase Substrate 25 was prepared in 1× Kinase Buffer. The reaction was initiated by adding 15 µL of the 5/3× ATP/substrate mixture. The 384-well plate was centrifuged at 1000 rpm for 30 seconds, mixed by shaking, and incubated at room temperature for 120 minutes. The kinase reaction was terminated by adding 30 µL stop solution, followed by centrifugation at 1000 rpm for 30 seconds and mixing. Conversion rates were measured using a Caliper EZ Reader. %Inhibition = (Conversion%_max - Conversion%_sample)/(Conversion%_max - Conversion%_min) × 100. Where: Conversion%_sample: Conversion rate reading of test samples; Conversion%_min: Mean value of negative control wells (representing conversion rate without enzyme activity); Conversion%_max: Mean value of positive control wells (representing conversion rate without compound inhibition). Dose-response curves were plotted with log(concentration) as the X-axis and percentage inhibition as the Y-axis. Curve fitting was performed using GraphPad Prism 5 software with the "log(inhibitor) vs. response - Variable slope" model to derive IC50 values for each compound's enzyme inhibitory activity. The fitting formula was: Y = Bottom + (Top - Bottom)/(1 + 10^((LogIC50 - X) × HillSlope)).

| SMILES | IC50 (FLT3) | IC50 (FLT3; Table 4, read-out: FLT3 (IC50)) | further results |
| --- | --- | --- | --- |
| COc1cc2c(cc1Nc1ncc(Cl)c(Nc3ccccc3S(=O)(=O)C(C)C)n1)OC[C@@H]1CN(C3CCOCC3)CCN21 [Compound C1S] |  |  | IC50 (AXL; Table 3, read-out: AXL (IC50)): < 0.03 µM; IC50 (FLT3; Table 3, read-out: FLT3 (IC50)): < 0.03 µM |
| COc1cc2c(cc1Nc1ncc(Cl)c(Nc3ccccc3S(=O)(=O)C(C)C)n1)OC[C@@H]1CN(C3CCN(C)CC3)CCN21 [Compound C2S] | < 0.03 µM |  | IC50 (AXL): < 0.03 µM |
| CNC(=O)c1ccccc1Nc1cc(Nc2cc3c(cc2OC)N2CCN(C4CCN(C)CC4)C[C@@H]2CO3)ncc1C(F)(F)F [Compound D2R] | < 0.02 µM |  |  |
| CNC(=O)c1ccccc1Nc1cc(Nc2cc3c(cc2OC)N2CCN(C4CCN(C)CC4)C[C@H]2CO3)ncc1C(F)(F)F [Compound D2S] |  | < 0.05 µM |  |
| CNC(=O)c1ccccc1Nc1cc(Nc2cc3c(cc2OC)N2CCN(C4CN(C)C4)C[C@H]2CO3)ncc1C(F)(F)F [Compound D4S] |  | < 0.07 µM |  |
